# What was measured:
# Format in all cases: in vivo
# [1] = Change of blood glucose levels after administration of the test compounds to rats; details: for blood glucose level as a percentage compared to the baseline level (vehicle-treated rats = 100%): 50 μmol/kg intravenously
# [2] = system: Reserpine-induced hypothermia mice; assay: Anti-reserpine action after intravenous and intracerebroventicular administration of test compounds; details: for Dose which can increase the average of body temperatures at 1° C. for 180 min in reserpine-induced hypothermia mice, administered intracerebroventicularly: intracerebroventicular, calculated from AUC for 180 min after 0.21 μmol/kg
# Procedure: Anti Recerpine Action After Intravenous and Intracerebroventicular Administration of Test Compounds
# Recerpine-induced hypothermia mice (ddY, male) were prepared by the administration of reserpine (3 mg/kg) at 18 hours before test compounds administration. Mice with their body temperature about 25° C. were used in the experiment. Test compounds were solubilized in saline and 0.1 ml (1 μmol/kg) of them were administered intravenously and 0.005 ml (0.21 μmol/kg) of them were administered intracerebroventicularly, respectively. After the administration, rectal temperature was measured at 30, 60, 120, and 180 min. The area under curve (AUC) of the body temperature-time profile was calculated by the general trapezoidal method. In the control experiment, vehicle (saline) was administered to mice intravenously or intracerebroventicularly and the rectal temperature was measured by the same protocol. The effective dose, which can increase the average of body temperatures at 1° C. for 180 min in reserpine-induced hypothermia mice after intravenous or intracerebroventicular administration of the test compounds, is calculated by the following equation: [formula]
# Effective dose: Dose which can increase the average of body temperatures at 1° C. for 180 min in reserpine-induced hypothermia mice.
# AUC (test compounds): The area under curve (AUC) of the body temperature-time profile for 180 min after intravenous or intracerebroventicular administration of test, compounds was calculated by the general trapezoidal method.
# AUC (vehicle): The area under curve (AUC) of the body temperature-time profile for 180 min after intravenous or intracerebroventicular administration of saline was calculated by the general trapezoidal method.
# [3] = system: Reserpine-induced hypothermia mice; assay: Anti-reserpine action after oral administration of test compounds; details: calculated from AUC of body temperature-time profile for 420 min after 10 μmol/kg
# Procedure: Anti-recerpine Action After Oral Administration of Test Compounds
# Reserpine-induced hypothemia mice (ddY, male, body weight: 30 to 40 g) were prepared by the subcutaneous administration of reserpine in back side of the […] (3 mg/kg) at 18 hours before test compounds administration. Mice with their body temperature about 25° C. were used in the experiment. Test compounds were solubilized in saline and 0.2 ml (10 μmol/kg) of them were administered by sonde for oral administration. After the administration, rectal temperature was measured at, 30, 60, 120, 180, 240, 300, and […]. The area under curve (AUC) of the body temperature-time profile was calculated by the general trapezoidal method. In the control experiment, vehicle (saline) was administered to mice and the rectal temperature was measured by the same protocol. The effective dose, which can increase the average of body temperature at 1° C. for 420 min in reserpine-induced hypothermia mice after oral administration of the test compounds, is calculated by the following equation: [formula]
# Effective dose: Dose which can increase the average of body temperatures at 1° C. for 420 min in reserpine-induced hypothermia mice.
# AUC (test compounds): The area under curve (AUC) of the body temperature-time profile for 420 min after oral administration of test compounds was calculated by the general trapezoidal method. […]
blood glucose level as a percentage compared to the baseline level (vehicle-treated rats = 100%) ([1]; Time 0 min) [%],blood glucose level as a percentage compared to the baseline level (vehicle-treated rats = 100%) ([1]; Time 5 min) [%],blood glucose level as a percentage compared to the baseline level (vehicle-treated rats = 100%) ([1]; Time 15 min) [%],blood glucose level as a percentage compared to the baseline level (vehicle-treated rats = 100%) ([1]; Time 30 min) [%],blood glucose level as a percentage compared to the baseline level (vehicle-treated rats = 100%) ([1]; Time 60 min) [%],blood glucose level as a percentage compared to the baseline level (vehicle-treated rats = 100%) ([1]; Time 120 min) [%],blood glucose level as a percentage compared to the baseline level (vehicle-treated rats = 100%) ([1]; Time 180 min) [%],blood glucose level as a percentage compared to the baseline level (vehicle-treated rats = 100%) ([1]; Time 240 min) [%],blood glucose level as a percentage compared to the baseline level (vehicle-treated rats = 100%) ([1]; Time 300 min) [%],blood glucose level as a percentage compared to the baseline level (vehicle-treated rats = 100%) ([1]; Time 360 min) [%],blood glucose level as a percentage compared to the baseline level (vehicle-treated rats = 100%) ([1]; Time 420 min) [%],blood glucose level as a percentage compared to the baseline level (vehicle-treated rats = 100%) ([1]; Time 480 min) [%],Structure (SMILES),"Dose which can increase the average of body temperatures at 1° C. for 180 min in reserpine-induced hypothermia mice, administered intracerebroventicularly [2] [µmol/kg]",acute rise of the blood glucose level and fall by the rebound after administration ([1]; result in words),Dose which can increase the average of body temperatures at 1° C. for 420 min in reserpine-induced hypothermia mice by oral [3] [µmol/kg],"Dose which can increase the average of body temperatures at 1° C. for 180 min in reserpine-induced hypothermia mice, administered intravenously ([2]; intravenous, calculated from AUC for 180 min after 1 μmol/kg) [µmol/kg]"
107.7,119.9,104.3,109.1,112.1,126.5,105.3,110.9,104.0,100.4,102.6,111.8,"C[C@H]1OC(=O)N[C@H]1C(=O)N[C@@H](Cc1cscn1)C(=O)N1CCC[C@H]1C(N)=O (mixture of isomers) [Compound I-10, cis-L-5-methyl-2-oxo-oxazolidine-4-yl-carbonyl-3-(4-thiazolyl)-L-alanyl-L-prolineamide]",0.025,–,–,–
116.3,114.6,123.3,137.9,153.5,139.1,119.1,112.6,113.2,103.5,102.6,97.1,"NC(=O)[C@@H]1CCCN1C(=O)[C@H](Cc1cnc[nH]1)NC(=O)[C@@H]1CCC(=O)N1 [TRH, L-pyroglutamyl-L-histidyl-L-prolineamide]",0.033,acutely raises up the blood glucose level,42.68,9.84

# From US6319902A, “Peptide derivatives having thiazolyl-alanine residue” (Shionogi & Co., Ltd., priority 1999, dated 2001)
